Assay results reported in article PMC8058401, “Identification and Characterization of Zika Virus NS5 Methyltransferase Inhibitors” (Frontiers in Cellular and Infection Microbiology, 2021).
Where two headings read alike, the source gives them in different places.

Legend:
[1] = tested on: ZIKV (SMGC-1); test: cell viability assay based on ZIKV-induced cytopathic effect (CPE) in Huh-7 cells; settings: Zika virus, Huh-7, read-out: EC50, protection from ZIKV induced CPE
[2] = tested on: ZIKV; settings: cited from earlier work
[3] = tested on: ZIKV; test: virus yield reduction assay by qRT-PCR in Huh-7 cells; settings: Huh7 cells, 72 hpi; for effect on viral RNA copy numbers: dose dependent
[4] = target: ZIKV NS5 MTase (WT-MTase) (Zika virus, UniProt A0A024B7W1); test: biochemical
[5] = target: NS5 MTase of DENV; parameters: method as in Dong et al., 2008; settings: ref Dong et al., 2008; cited from earlier work
[6] = target: NS5 MTase of WNV; parameters: method as in Dong et al., 2008; settings: ref Dong et al., 2008; cited from earlier work
[7] = tested on: DENV; parameters: method as in Dong et al., 2008; Tao et al., 2018; settings: ref Dong et al., 2008; Tao et al., 2018; read-out: EC50, anti-virus activity for DENV; cited from earlier work
[8] = tested on: WNV; parameters: method as in Dong et al., 2008; Tao et al., 2018; settings: ref Dong et al., 2008; Tao et al., 2018; read-out: EC50, anti-virus activity for WNV; cited from earlier work
[9] = target: ZIKV NS5 WT-MTase (Zika virus, UniProt A0A024B7W1); test: surface plasmon resonance assay, WT-MTase; type: binding
[10] = tested on: SARS-CoV-2 3CL-protease; parameters: method as in Jang et al., 2020; settings: dose-dependent; ref Jang et al., 2020; cited from earlier work
[11] = CCK-8 cytotoxicity assay; settings: human
[12] = target: ZIKV NS5 K105A-MTase (Zika virus, UniProt A0A024B7W1, K2625A); test: luminescence-based methyltransferase assay, K105A-MTase

Question: With `CCN(CC)CCCC(C)Nc1ccnc2cc(Cl)ccc12` (stereo not shown) [chloroquine] as the compound, how does the EC50 [1] read?
Answer: Its EC50 is 2.55 µM.

Question: And the EC50 ([2]; ref Li C. et al., 2017, Han et al., 2019, read-out: EC50, ZIKV infection in vitro)?
Answer: The EC50 was 1 to 5 µM.

Question: What about the “effect on viral RNA copy numbers” value [3] of the same compound?
Answer: The value was “significantly reduced viral RNA copy numbers”.

Question: For `Nc1ncnc2c1ncn2[C@@H]1O[C@H](C[C@@H](N)CC[C@H](N)C(=O)O)[C@@H](O)[C@H]1O` [sinefungin], which IC50 [4] is on record?
Answer: Its IC50 is 4.03 µM.

Question: What about the IC50 [5] of the same compound?
Answer: Its IC50 is about 0.63 µM.

Question: What about the IC50 [6] of the same compound?
Answer: The IC50 was about 14 µM.

Question: And the EC50 [7]?
Answer: Its EC50 is 77 µM.

Question: What about the EC50 [8] of the same compound?
Answer: Its EC50 is 27 µM.

Question: What about the EC50 ([2]; ref Dong et al., 2008, Tao et al., 2018, read-out: EC50, anti-virus activity for ZIKV) of the same compound?
Answer: The EC50 was over 50 µM.

Question: For `Cc1cc(N)c2cc(NC(=O)Nc3ccc4nc(C)cc(N)c4c3)ccc2n1` [NSC 12155], which “inhibitory activity toward ZIKV” value ([2]; no reference given) is on record?
Answer: The value was “no inhibitory activity”.

Question: Which IC50 [4] does the source give for `O=c1c(O)cc([C@H]2Oc3cc(O)cc(O)c3C[C@H]2O)cc2c([C@H]3Oc4cc(O)cc(O)c4C[C@H]3O)cc(O)c(O)c12` [theaflavin] here?
Answer: Its IC50 is 10.1 µM.

Question: What about the inhibition at 20 µM ([4]; at 20 μM, read-out: MTase inhibitory activity in initial screening) of the same compound?
Answer: The inhibition at 20 µM was over 50%.

Question: What about the Kd [9] of the same compound?
Answer: The Kd was 64.4 µM.

Question: What about the EC50 [1] of the same compound?
Answer: The EC50 was 8.19 µM.

Question: And the “inhibitory activity toward SARS-CoV-2 by targeting the 3CL-protease” value [10]?
Answer: The value was “significant inhibitory activity”.

Question: And the CC50 at 24 h [11]?
Answer: The CC50 at 24 h was over 128 µM.

Question: What about the “reduction of viral RNA detected in the supernatant” value ([3]; 20 μM) of the same compound?
Answer: Its value is “more than 50%”.

Question: What about the “effect on viral RNA copy numbers” value [3] of the same compound?
Answer: Its value is “significantly reduced viral RNA copy numbers”.

Question: And the IC50 [12]?
Answer: The IC50 was 37.8 µM.
